Data as given in PubChem BioAssay (NCI).
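The compound was tested at five concentrations on cells cultured in 96-well plates, with a 48-hour exposure period. TGI denotes the concentration required for complete inhibition of growth.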

What was measured:
Assay in all cases: NCI-60 cell line screen, 48 h
[1] = test system: 786-0 renal
[2] = test system: A498 renal
[3] = test system: A549 NSCLC
[4] = test system: ACHN renal
[5] = test system: BT-549 breast
[6] = test system: CAKI-1 renal
[7] = test system: CCRF-CEM leukemia
[8] = test system: COLO 205 colon
[9] = test system: DLD-1 colon
[10] = test system: DMS 114 small cell lung
[11] = test system: DMS 273 small cell lung
[12] = test system: DU-145 prostate
[13] = test system: EKVX NSCLC
[14] = test system: HCC-2998 colon
[15] = test system: HCT-116 colon
[16] = test system: HCT-15 colon
[17] = test system: HL-60(TB) leukemia
[18] = test system: HOP-18 NSCLC
[19] = test system: HOP-62 NSCLC
[20] = test system: HOP-92 NSCLC
[21] = test system: HS 578T breast
[22] = test system: HT29 colon
[23] = test system: IGROV1 ovarian
[24] = test system: K-562 leukemia
[25] = test system: KM12 colon
[26] = test system: LOX IMVI melanoma
[27] = test system: LXFL 529 NSCLC
[28] = test system: M14 melanoma
[29] = test system: M19-MEL melanoma
[30] = test system: MALME-3M melanoma
[31] = test system: MDA-MB-435
[32] = test system: MOLT-4 leukemia
[33] = test system: NCI-H226 lung
[34] = test system: NCI-H23 lung
[35] = test system: NCI-H460 lung
[36] = test system: NCI-H522 lung
[37] = test system: OVCAR-3 ovarian
[38] = test system: OVCAR-4 ovarian
[39] = test system: OVCAR-5 ovarian
[40] = test system: OVCAR-8 ovarian
[41] = test system: PC-3 prostate
[42] = test system: RPMI-8226 leukemia
[43] = test system: RXF 393 renal
[44] = test system: SF-268 CNS
[45] = test system: SF-295 CNS
[46] = test system: SF-539 CNS
[47] = test system: SK-MEL-2 melanoma
[48] = test system: SK-MEL-28 melanoma
[49] = test system: SK-MEL-5 melanoma
[50] = test system: SK-OV-3 ovarian
[51] = test system: SN12C renal
[52] = test system: SNB-19 CNS
[53] = test system: SNB-75 CNS
[54] = test system: SNB-78 CNS
[55] = test system: SW-620 colon
[56] = test system: T-47D breast
[57] = test system: TK-10 renal
[58] = test system: U251 CNS
[59] = test system: UACC-257 melanoma
[60] = test system: UACC-62 melanoma
[61] = test system: UO-31 renal
[62] = test system: XF 498 CNS
[63] = test system: KM20L2 colon
[64] = test system: SR leukemia
[65] = test system: MCF7 breast
[66] = test system: MDA-MB-231 breast
[67] = test system: MDA-N
[68] = test system: NCI/ADR-RES ovarian

Structure (SMILES): OCCCCCCOc1ccc(-c2cc(-c3ccccn3)nc(-c3ccccn3)c2)cc1
- TGI [1]: 0.551 µM
- TGI [2]: 5.77 µM
- TGI [3]: 6.42 µM
- TGI [4]: 5.22 µM
- TGI [5]: 9.21 µM
- TGI [6]: 1.66 µM
- TGI [7]: 1.08 µM
- TGI [8]: 8.09 µM
- TGI [9]: 2.99 µM
- TGI [10]: 1.48 µM
- TGI [11]: 0.978 µM
- TGI [12]: 7.83 µM
- TGI [13]: 4.97 µM
- TGI [14]: 16.3 µM
- TGI [15]: 1.48 µM
- TGI [16]: > 33.1 µM
- TGI [17]: 0.514 µM
- TGI [18]: 3.99 µM
- TGI [19]: 1.66 µM
- TGI [20]: 14.8 µM
- TGI [21]: 4.61 µM
- TGI [22]: 11.8 µM
- TGI [23]: 2.7 µM
- TGI [24]: 3.78 µM
- TGI [25]: 2.42 µM
- TGI [26]: 1.02 µM
- TGI [27]: 4.97 µM
- TGI [28]: 4.3 µM
- TGI [29]: 1.25 µM
- TGI [30]: 9.38 µM
- TGI [31]: > 100 µM
- TGI [32]: 2.53 µM
- TGI [33]: 1.06 µM
- TGI [34]: 9.05 µM
- TGI [35]: 1.17 µM
- TGI [36]: 3.32 µM
- TGI [37]: 1.32 µM
- TGI [38]: 4.81 µM
- TGI [39]: 4.14 µM
- TGI [40]: 1.7 µM
- TGI [41]: 5.31 µM
- TGI [42]: 1.88 µM
- TGI [43]: 0.853 µM
- TGI [44]: 1.32 µM
- TGI [45]: 1.64 µM
- TGI [46]: 1.02 µM
- TGI [47]: 1.13 µM
- TGI [48]: 2.72 µM
- TGI [49]: 3.48 µM
- TGI [50]: 1.59 µM
- TGI [51]: 3.02 µM
- TGI [52]: 37.8 µM
- TGI [53]: 3.11 µM
- TGI [54]: 10.9 µM
- TGI [55]: 14.7 µM
- TGI [56]: 5.74 µM
- TGI [57]: 6.66 µM
- TGI [58]: 1.6 µM
- TGI [59]: 10.2 µM
- TGI [60]: 0.933 µM
- TGI [61]: 2.45 µM
- TGI [62]: 5.32 µM

Structure (SMILES): O=c1cc(-c2ccccc2)c2cc3c(=O)ccoc3cc2o1
- TGI [1]: > 100 µM
- TGI [2]: 78.7 µM
- TGI [3]: > 100 µM
- TGI [4]: > 100 µM
- TGI [7]: > 100 µM
- TGI [8]: > 100 µM
- TGI [9]: > 100 µM
- TGI [10]: > 100 µM
- TGI [11]: > 100 µM
- TGI [13]: > 100 µM
- TGI [14]: > 100 µM
- TGI [15]: > 100 µM
- TGI [16]: > 100 µM
- TGI [17]: > 100 µM
- TGI [19]: > 100 µM
- TGI [22]: > 100 µM
- TGI [24]: > 100 µM
- TGI [63]: > 100 µM
- TGI [26]: > 100 µM
- TGI [28]: > 100 µM
- TGI [29]: > 100 µM
- TGI [30]: > 100 µM
- TGI [32]: > 100 µM
- TGI [33]: > 100 µM
- TGI [34]: > 100 µM
- TGI [35]: > 100 µM
- TGI [37]: > 100 µM
- TGI [38]: > 100 µM
- TGI [40]: > 100 µM
- TGI [42]: > 100 µM
- TGI [43]: > 100 µM
- TGI [44]: > 100 µM
- TGI [45]: > 100 µM
- TGI [46]: > 100 µM
- TGI [47]: > 100 µM
- TGI [48]: > 100 µM
- TGI [49]: > 100 µM
- TGI [51]: > 100 µM
- TGI [52]: > 100 µM
- TGI [53]: 90.3 µM
- TGI [64]: > 100 µM
- TGI [55]: > 100 µM
- TGI [57]: > 100 µM
- TGI [58]: > 100 µM
- TGI [59]: > 100 µM
- TGI [60]: > 100 µM
- TGI [61]: > 100 µM
- TGI [62]: > 100 µM

Structure (SMILES): N#CC(C(=O)C(=O)NCCCNC(=O)C(=O)C(C#N)c1ccccc1)c1ccccc1 (stereo not drawn)
- TGI [1]: > 100 µM
- TGI [2]: > 100 µM
- TGI [3]: > 100 µM
- TGI [4]: > 100 µM
- TGI [6]: > 100 µM
- TGI [7]: > 100 µM
- TGI [8]: > 100 µM
- TGI [9]: > 100 µM
- TGI [10]: > 100 µM
- TGI [11]: > 100 µM
- TGI [13]: > 100 µM
- TGI [14]: > 100 µM
- TGI [15]: > 100 µM
- TGI [16]: > 100 µM
- TGI [17]: > 100 µM
- TGI [18]: > 100 µM
- TGI [19]: > 100 µM
- TGI [20]: > 100 µM
- TGI [22]: > 100 µM
- TGI [23]: > 100 µM
- TGI [24]: > 100 µM
- TGI [25]: > 100 µM
- TGI [63]: > 100 µM
- TGI [26]: > 100 µM
- TGI [27]: > 100 µM
- TGI [28]: > 100 µM
- TGI [29]: > 100 µM
- TGI [30]: > 100 µM
- TGI [32]: > 100 µM
- TGI [33]: > 100 µM
- TGI [34]: > 100 µM
- TGI [35]: > 100 µM
- TGI [36]: > 100 µM
- TGI [37]: > 100 µM
- TGI [38]: > 100 µM
- TGI [39]: > 100 µM
- TGI [40]: > 100 µM
- TGI [42]: > 100 µM
- TGI [43]: > 100 µM
- TGI [44]: > 100 µM
- TGI [45]: > 100 µM
- TGI [46]: > 100 µM
- TGI [47]: > 100 µM
- TGI [48]: > 100 µM
- TGI [49]: > 100 µM
- TGI [50]: > 100 µM
- TGI [51]: > 100 µM
- TGI [52]: > 100 µM
- TGI [53]: > 100 µM
- TGI [54]: > 100 µM
- TGI [64]: > 100 µM
- TGI [55]: > 100 µM
- TGI [57]: > 100 µM
- TGI [58]: > 100 µM
- TGI [59]: > 100 µM
- TGI [60]: > 100 µM
- TGI [61]: > 100 µM

Structure (SMILES): C#C[C@]1(O)CC[C@H]2[C@@H]3CCc4cc(OC(=O)c5cccc6cc7ccccc7nc56)ccc4[C@H]3CC[C@@]21C
- TGI [1]: 96.4 µM
- TGI [2]: > 100 µM
- TGI [3]: > 100 µM
- TGI [4]: > 100 µM
- TGI [5]: > 100 µM
- TGI [6]: 65.1 µM
- TGI [7]: > 100 µM
- TGI [8]: 43.7 µM
- TGI [12]: 78.9 µM
- TGI [13]: > 100 µM
- TGI [14]: > 100 µM
- TGI [15]: 80.1 µM
- TGI [16]: > 100 µM
- TGI [17]: > 100 µM
- TGI [19]: > 100 µM
- TGI [20]: > 100 µM
- TGI [21]: > 100 µM
- TGI [22]: > 100 µM
- TGI [23]: > 100 µM
- TGI [24]: > 100 µM
- TGI [25]: 50.6 µM
- TGI [26]: 66 µM
- TGI [28]: > 100 µM
- TGI [30]: 34.7 µM
- TGI [65]: > 100 µM
- TGI [66]: 71.9 µM
- TGI [31]: > 100 µM
- TGI [67]: 89.3 µM
- TGI [32]: > 100 µM
- TGI [33]: > 100 µM
- TGI [34]: > 100 µM
- TGI [35]: > 100 µM
- TGI [36]: 50.5 µM
- TGI [68]: > 100 µM
- TGI [37]: 63 µM
- TGI [38]: > 100 µM
- TGI [39]: > 100 µM
- TGI [40]: > 100 µM
- TGI [41]: > 100 µM
- TGI [42]: > 100 µM
- TGI [43]: > 100 µM
- TGI [44]: > 100 µM
- TGI [46]: > 100 µM
- TGI [47]: > 100 µM
- TGI [48]: > 100 µM
- TGI [49]: 29.5 µM
- TGI [50]: > 100 µM
- TGI [51]: 54.7 µM
- TGI [52]: > 100 µM
- TGI [53]: > 100 µM
- TGI [64]: > 100 µM
- TGI [55]: > 100 µM
- TGI [56]: 34 µM
- TGI [58]: > 100 µM
- TGI [59]: > 100 µM
- TGI [60]: 80.4 µM
